Assay: Inhibiting Platelet activating factor receptor by radioreceptor binding assay using rabbit platelets and [3H]-PAF

| SMILES | IC50 [nM] |
| --- | --- |
| C/C1=C\CC[C@@]2(C)O[C@@H]2C(=O)[C@@H]2CC[C@@H](C)[C@](C)(CC1)[C@H]2CO [(E)-(1R,3S,5R,12S,13R,16S)-16-Hydroxymethyl-5,9,12,13-tetramethyl-4-oxa-tricyclo[10.3.1.0*3,5*]hexadec-8-en-2-one] | 1300 |
| CC(=O)OC[C@H]1[C@H]2CC[C@@H](C)[C@]1(C)CC/C(C)=C/CC[C@@]1(C)O[C@@H]1C2=O [Acetic acid (E)-(1R,3S,5R,12S,13R,16S)-5,9,12,13-tetramethyl-2-oxo-4-oxa-tricyclo[10.3.1.0*3,5*]hexadec-8-en-16-ylmethyl ester] | 410 |
| C/C1=C\CC[C@@]2(C)O[C@@H]2C(=O)[C@@H]2CC[C@@H](C)[C@](C)(CC1)[C@H]2COC(=O)Oc1ccccc1 [Carbonic acid phenyl ester (E)-(1R,3S,5R,12S,13R,16S)-5,9,12,13-tetramethyl-2-oxo-4-oxa-tricyclo[10.3.1.0*3,5*]hexadec-8-en-16-ylmethyl ester] | 550 |
| C/C1=C\CC[C@@]2(C)O[C@@H]2C(=O)[C@@H]2CC[C@@H](C)[C@](C)(CC1)[C@H]2COC(=O)N(C)C [Dimethyl-carbamic acid (E)-(1R,3S,5R,12S,13R,16S)-5,9,12,13-tetramethyl-2-oxo-4-oxa-tricyclo[10.3.1.0*3,5*]hexadec-8-en-16-ylmethyl ester] | 180 |
| CCC(=O)OC[C@H]1[C@H]2CC[C@@H](C)[C@]1(C)CC/C(C)=C/CC[C@@]1(C)O[C@@H]1[C@@H]2O [Propionic acid (E)-(1R,2R,3R,5R,12S,13R,16S)-2-hydroxy-5,9,12,13-tetramethyl-4-oxa-tricyclo[10.3.1.0*3,5*]hexadec-8-en-16-ylmethyl ester] | 340 |

Results, then the compound that gave them:

| IC50 [nM] | SMILES |
| --- | --- |
| 120 | C/C1=C\CC[C@@]2(C)O[C@@H]2C(=O)[C@@H]2CC[C@@H](C)[C@](C)(CC1)[C@H]2C=O [(E)-(1R,3S,5R,12S,13R,16S)-5,9,12,13-Tetramethyl-2-oxo-4-oxa-tricyclo[10.3.1.0*3,5*]hexadec-8-ene-16-carbaldehyde] |
| 50 | C/C1=C\CC[C@@]2(C)O[C@@H]2C(=O)[C@@H]2CC[C@@H](C)[C@](C)(CC1)[C@H]2COc1ccon1 [(E)-(1R,3S,5R,12S,13R,16S)-16-(Isoxazol-3-yloxymethyl)-5,9,12,13-tetramethyl-4-oxa-tricyclo[10.3.1.0*3,5*]hexadec-8-en-2-one] |
| 80 | CC(=O)OC[C@H]1[C@H]2CC[C@@H](C)[C@]1(C)CC/C(C)=C/CC[C@@]1(C)O[C@@H]1[C@@H]2O [Acetic acid (E)-(1R,2R,3R,5R,12S,13R,16S)-2-hydroxy-5,9,12,13-tetramethyl-4-oxa-tricyclo[10.3.1.0*3,5*]hexadec-8-en-16-ylmethyl ester] |
| 130 | COC(=O)OC[C@H]1[C@H]2CC[C@@H](C)[C@]1(C)CC/C(C)=C/CC[C@@]1(C)O[C@@H]1[C@@H]2O [Carbonic acid (E)-(1R,2R,3R,5R,12S,13R,16S)-2-hydroxy-5,9,12,13-tetramethyl-4-oxa-tricyclo[10.3.1.0*3,5*]hexadec-8-en-16-ylmethyl ester methyl ester] |
| 26 | COC(=O)OC[C@H]1[C@H]2CC[C@@H](C)[C@]1(C)CC/C(C)=C/CC[C@@]1(C)O[C@@H]1C2=O [Carbonic acid methyl ester (E)-(1R,3S,5R,12S,13R,16S)-5,9,12,13-tetramethyl-2-oxo-4-oxa-tricyclo[10.3.1.0*3,5*]hexadec-8-en-16-ylmethyl ester] |
| 180 | C/C1=C\CC[C@@]2(C)O[C@@H]2[C@H](O)[C@@H]2CC[C@@H](C)[C@](C)(CC1)[C@H]2COC(=O)N(C)C [Dimethyl-carbamic acid (E)-(1R,2R,3R,5R,12S,13R,16S)-2-hydroxy-5,9,12,13-tetramethyl-4-oxa-tricyclo[10.3.1.0*3,5*]hexadec-8-en-16-ylmethyl ester] |
